In PubChem BioAssay AID248 (DTP/NCI, 2004):
Values joined by “and” are separate entries in the source; they are usually repeats but may differ in a detail not shown here. Equal values may be shown once. Inconclusive results and toxic doses are left out. Cut-off read from the data, not from the text of the source: active = T/C of 150% or more; inactive = T/C below 125%.

System: L1210 leukemia ip in BDF1 mice, survival T/C
Test: NCI In Vivo Anticancer Drug Screen. Data for tumor model L1210 Leukemia (intraperitoneal) in B6D2F1 (BDF1) mice
Details: endpoint: mean survival time, higher = longer survival
Procedure, shortened: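 Survival endpoint. Drug-treated group vs vehicle group, expressed as T divided by C. Tumor passaged by transplantation.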

[1] = dose: 100.0 mg/kg/injection, schedule: Q01DX001 (ip), vehicle: saline
[2] = dose: 200.0 mg/kg/injection, schedule: Q01DX001 (ip), vehicle: saline
[3] = dose: 100.0 mg/kg/injection, schedule: Q04DX002 (ip), vehicle: Klucel (hydroxypropylcellulose) (HPC)
[4] = dose: 200.0 mg/kg/injection, schedule: Q04DX002 (ip), vehicle: Klucel (hydroxypropylcellulose) (HPC)
[5] = dose: 100.0 mg/kg/injection, schedule: Q01DX009 (ip), vehicle: Klucel (hydroxypropylcellulose) (HPC)
[6] = dose: 200.0 mg/kg/injection, schedule: Q01DX009 (ip), vehicle: Klucel (hydroxypropylcellulose) (HPC)
[7] = dose: 400.0 mg/kg/injection, schedule: Q01DX009 (ip), vehicle: Klucel (hydroxypropylcellulose) (HPC)
[8] = dose: 50.0 mg/kg/injection, schedule: Q01DX001 (ip), vehicle: saline with Tween-80
[9] = dose: 100.0 mg/kg/injection, schedule: Q04DX003 (ip), vehicle: saline with Tween-80
[10] = dose: 200.0 mg/kg/injection, schedule: Q04DX003 (ip), vehicle: saline with Tween-80
[11] = dose: 400.0 mg/kg/injection, schedule: Q04DX003 (ip), vehicle: saline with Tween-80

Measured: T/C

CCCCCCCCCCCCCCCC[N+]1(C)CCS(C)(OS(=O)(=O)OC)CC1 (centres undefined)
inactive: dose: 6.25 mg/kg/injection, schedule: Q01DX001 (ip), vehicle: saline 95 % of control | dose: 12.5 mg/kg/injection, schedule: Q01DX001 (ip), vehicle: saline 88 % of control | dose: 25.0 mg/kg/injection, schedule: Q01DX001 (ip), vehicle: saline 88 % of control

NC1CCCc2ccccc2C1O (centres undefined)
inactive: [1] 102 % of control | [2] 104 % of control

Cc1ccc(S(=O)(=O)C2=CC(=O)c3ccccc3C2=O)cc1
inactive: dose: 75.0 mg/kg/injection, schedule: Q01DX001 (ip), vehicle: other 88 % of control

CC1=CC(C)(C)NC(=S)N1CCO
inactive: dose: 74.0 mg/kg/injection, schedule: Q01DX Z (ip), vehicle: methylcellulose (MC) 91 % of control | [3] 104 % of control | [4] 107 % of control

CCN(CC)c1ccnc(SCc2ccccc2)n1
inactive: dose: 100.0 mg/kg/injection, schedule: Q01DX Z (ip), vehicle: methylcellulose (MC) 89 % of control | dose: 200.0 mg/kg/injection, schedule: Q01DX Z (ip), vehicle: methylcellulose (MC) 89 % of control

Cc1c(Cl)cccc1NC(=O)c1cccc(C(=O)Nc2cccc(Cl)c2C)c1
inactive: [5] 112 % of control | dose: 100.0 mg/kg/injection, schedule: Q04DX003 (ip), vehicle: Klucel (hydroxypropylcellulose) (HPC) 91 % of control | [6] 93 % of control | dose: 200.0 mg/kg/injection, schedule: Q04DX003 (ip), vehicle: Klucel (hydroxypropylcellulose) (HPC) 90 % of control | [7] 88 % of control | dose: 400.0 mg/kg/injection, schedule: Q04DX003 (ip), vehicle: Klucel (hydroxypropylcellulose) (HPC) 98 % of control

O=C1C(Br)CS(=O)(=O)CC1Br (centres undefined)
inactive: dose: 6.25 mg/kg/injection, schedule: Q01DX009 (ip), vehicle: saline 96 % of control | dose: 8.75 mg/kg/injection, schedule: Q01DX009 (ip), vehicle: saline 106 % of control | dose: 12.5 mg/kg/injection, schedule: Q01DX009 (ip), vehicle: saline 86 % of control | dose: 12.5 mg/kg/injection, schedule: Q04DX003 (ip), vehicle: Klucel (hydroxypropylcellulose) (HPC) 96 % of control | dose: 15.0 mg/kg/injection, schedule: Q01DX001 (ip), vehicle: carboxymethylcellulose (CMC) 102 % of control | dose: 17.5 mg/kg/injection, schedule: Q01DX009 (ip), vehicle: saline 98 % of control | dose: 25.0 mg/kg/injection, schedule: Q01DX009 (ip), vehicle: saline 91 % of control | dose: 25.0 mg/kg/injection, schedule: Q04DX003 (ip), vehicle: Klucel (hydroxypropylcellulose) (HPC) 94 % of control | dose: 30.0 mg/kg/injection, schedule: Q01DX001 (ip), vehicle: carboxymethylcellulose (CMC) 106 % of control

C/C(=C/C1CC(=O)OC1=O)CC(C)(C)C (centres undefined)
inactive: dose: 222.0 mg/kg/injection, schedule: Q01DX Z (ip), vehicle: methylcellulose (MC) 108 % of control | dose: 333.0 mg/kg/injection, schedule: Q01DX Z (ip), vehicle: methylcellulose (MC) 92 % of control

Nc1nc(N)c2nonc2n1
inactive: dose: 12.5 mg/kg/injection, schedule: Q01DX005 (ip), vehicle: other 97 % of control | dose: 25.0 mg/kg/injection, schedule: Q01DX005 (ip), vehicle: other 90 % of control | dose: 50.0 mg/kg/injection, schedule: Q01DX005 (ip), vehicle: other 92 % of control | dose: 100.0 mg/kg/injection, schedule: Q01DX005 (ip), vehicle: other 89 % of control | dose: 200.0 mg/kg/injection, schedule: Q01DX005 (ip), vehicle: other 92 % of control

N=C1SCC(=O)N1CCN1C(=N)SCC1=O
inactive: dose: 100.0 mg/kg/injection, schedule: Q01DX001 (ip), vehicle: carboxymethylcellulose (CMC) 101 % of control | dose: 200.0 mg/kg/injection, schedule: Q01DX001 (ip), vehicle: carboxymethylcellulose (CMC) 90 % of control | dose: 400.0 mg/kg/injection, schedule: Q01DX001 (ip), vehicle: carboxymethylcellulose (CMC) 97 % of control

CCOC(=O)c1ccc(NC(=S)NC(=O)c2cccc([N+](=O)[O-])c2)cc1
inactive: [8] 88 % of control | dose: 100.0 mg/kg/injection, schedule: Q01DX001 (ip), vehicle: saline with Tween-80 88 % of control | dose: 100.0 mg/kg/injection, schedule: Q01DX009 (ip), vehicle: saline 99 % of control and 86 % of control | dose: 100.0 mg/kg/injection, schedule: Q04DX002 (ip), vehicle: alcohol 93 % of control | [9] 105 % of control | dose: 200.0 mg/kg/injection, schedule: Q01DX001 (ip), vehicle: saline with Tween-80 104 % of control and 87 % of control | dose: 200.0 mg/kg/injection, schedule: Q01DX009 (ip), vehicle: saline 93 % of control and 101 % of control | dose: 200.0 mg/kg/injection, schedule: Q04DX002 (ip), vehicle: alcohol 90 % of control | [10] 97 % of control | dose: 400.0 mg/kg/injection, schedule: Q01DX001 (ip), vehicle: saline with Tween-80 106 % of control | dose: 400.0 mg/kg/injection, schedule: Q04DX002 (ip), vehicle: alcohol 90 % of control | [11] 95 % of control

O=C(Nc1cccc(C(F)(F)F)c1)OCCOc1ccc(Br)cc1
inactive: [5] 98 % of control | [6] 96 % of control | [7] 92 % of control

C(=N\N1CCN(/N=C/c2ccc(-c3ccccc3)cc2)CC1)/c1ccc(-c2ccccc2)cc1
inactive: [1] 94 % of control | [2] 97 % of control | dose: 400.0 mg/kg/injection, schedule: Q01DX001 (ip), vehicle: saline 94 % of control

COc1nc(C)c(C)[n+]([O-])n1
inactive: dose: 12.5 mg/kg/injection, schedule: Q01DX001 (ip), vehicle: saline with Tween-80 94 % of control | dose: 12.5 mg/kg/injection, schedule: Q01DX009 (ip), vehicle: saline with Tween-80 96 % of control | dose: 12.5 mg/kg/injection, schedule: Q04DX003 (ip), vehicle: saline with Tween-80 97 % of control | dose: 25.0 mg/kg/injection, schedule: Q01DX001 (ip), vehicle: saline with Tween-80 100 % of control | dose: 25.0 mg/kg/injection, schedule: Q01DX009 (ip), vehicle: saline with Tween-80 108 % of control | dose: 25.0 mg/kg/injection, schedule: Q04DX003 (ip), vehicle: saline with Tween-80 110 % of control | [8] 107 % of control | dose: 50.0 mg/kg/injection, schedule: Q01DX009 (ip), vehicle: saline with Tween-80 96 % of control | dose: 50.0 mg/kg/injection, schedule: Q04DX003 (ip), vehicle: saline with Tween-80 94 % of control

Cc1ccc2nc(-c3cccc([N+](=O)[O-])c3)oc(=O)c2c1
inactive: [9] 87 % of control | [10] 97 % of control | [11] 97 % of control

CC(C)(CCC(=O)O)[N+](=O)[O-]
inactive: dose: 50.0 mg/kg/injection, schedule: Q04DX003 (ip), vehicle: saline 106 % of control | dose: 100.0 mg/kg/injection, schedule: Q04DX003 (ip), vehicle: saline 105 % of control | dose: 200.0 mg/kg/injection, schedule: Q04DX003 (ip), vehicle: saline 101 % of control

NC(=O)OCCCCCCOC(N)=O
inactive: [9] 90 % of control | [10] 90 % of control | [11] 87 % of control

C[n+]1c(-c2cc(C(F)(F)F)cc(C(F)(F)F)c2)c2cc(N)ccc2c2ccc(N)cc21
inactive: dose: 100.0 mg/kg/injection, schedule: Q01DX005 (ip), vehicle: water 97 % of control

C[P+](Cc1ccccc1)(c1ccccc1)c1ccccc1
inactive: dose: 1.25 mg/kg/injection, schedule: Q01DX001 (ip), vehicle: other 101 % of control | dose: 2.5 mg/kg/injection, schedule: Q01DX001 (ip), vehicle: other 94 % of control | dose: 5.0 mg/kg/injection, schedule: Q01DX001 (ip), vehicle: other 98 % of control

CCOC(=O)c1cc(N(CCOS(C)(=O)=O)CCOS(C)(=O)=O)ccc1N
inactive: dose: 1.8 mg/kg/injection, schedule: Q01DX015 (ip), vehicle: saline 95 % of control | dose: 2.0 mg/kg/injection, schedule: Q01DX015 (ip), vehicle: saline 89 % of control | dose: 3.0 mg/kg/injection, schedule: Q01DX015 (ip), vehicle: saline 106 % of control | dose: 5.0 mg/kg/injection, schedule: Q01DX001 (ip), vehicle: saline 116 % of control | dose: 7.0 mg/kg/injection, schedule: Q01DX015 (ip), vehicle: saline 90 % of control

CC(C)OC(=O)Nc1cccnc1
inactive: [3] 92 % of control | [4] 98 % of control | dose: 400.0 mg/kg/injection, schedule: Q04DX002 (ip), vehicle: Klucel (hydroxypropylcellulose) (HPC) 103 % of control
